The text below walks through data of US20230227445A1, “BENZAMIDE COMPOUND AND USE THEREOF” (HUMANWELL HEALTHCARE (GROUP) CO., LTD., priority 2020, published 2023).

Series [1] concerns histamine/citric acid-stimulated cough in guinea pig. Nature of the series: Efficacy test for histamine/citric acid-stimulated cough in guinea pig. The series is classed as in vivo. Particulars: guinea pigs, nasal drops, 0.17 mg/kg to 1.5 mg/kg, histamine/citric acid stimulation. As for the experimental part:
Guinea pigs were adaptively fed for 3 days to 7 days before being grouped. When the body weight of the guinea pigs reached 300 g to 400 g, they were numbered and randomly grouped.
Compounds or an excipient were administered to guinea pigs by nasal drops 0.25 hour to 24 hours before the start of the cough assessment. The administration dose of the test sample ranged from 0.17 mg/kg to 1.5 mg/kg. For the cough assessment, the guinea pigs were placed in a whole-body volume scan box for adaptation, and then, they were provided with histamine nebulization and then citric acid nebulization. […]
(§1) The experimental data was statistically analyzed by one-way ANOVA to analyze and compare data of the various groups. The statistical analysis result p<0.05 was regarded as a significant difference. The t-test was employed for difference comparison between any two.

The target in the next series is T1, hP2X3 receptor (Homo sapiens, UniProt P56373).
T1 construct: expressed in transfected cells
T1 sequence (P56373 1-397): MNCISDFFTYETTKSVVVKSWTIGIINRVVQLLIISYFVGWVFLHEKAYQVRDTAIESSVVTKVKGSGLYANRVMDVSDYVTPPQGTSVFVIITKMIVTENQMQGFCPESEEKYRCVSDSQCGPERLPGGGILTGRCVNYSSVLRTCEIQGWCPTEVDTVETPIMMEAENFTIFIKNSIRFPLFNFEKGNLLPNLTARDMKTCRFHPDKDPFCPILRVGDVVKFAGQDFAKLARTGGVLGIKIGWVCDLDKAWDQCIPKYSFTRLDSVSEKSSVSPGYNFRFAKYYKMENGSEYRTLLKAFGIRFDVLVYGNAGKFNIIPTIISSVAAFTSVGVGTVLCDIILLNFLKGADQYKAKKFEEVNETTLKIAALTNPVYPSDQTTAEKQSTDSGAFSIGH
Nature of the series: Antagonistic activity against hP2X3 receptor by FLIPR calcium flow assay. The series is classed as cell-based. Particulars: for IC50: human cells stably transfected with hP2X3, agonist α,β-meATP 400 nM; for antagonistic activity against hP2X3 receptor compared with Reference compound 1 (in words): vs Reference compound 1. The method, then: The antagonistic activity of hP2X3 antagonists against hP2X3 receptor was evaluated by means of FLIPR Calcium 4 Assay Kit (Molecular Devices, R8141) and FLIPR TETRA instrument (Molecular Devices, 0296) by detecting calcium flow signals. 24h before the experiment, human cells, which had been stably transfected with hP2X3 receptors, were plated on a 384-well plate at 2×10^5 cells/mL, with 50 μL of cell suspension per well, and the plate was cultured in an incubator (37° C., 5% CO2) for 16 h to 24 h. The test compound solution (20 to 50 mM DMSO stock solution) with a concentration of 180 times the required concentration was prepared using DMSO. The stock solution was added to the 384-well plate at 500 nL per well, supplemented with 30 μL of FLIPR Assay buffer (1×HBSS+2 mM CaCl2 20 mM HEPES containing 1.26 mM Ca^2+). The 384-well plate was shaken for 20 to 40 min to mix evenly. An agonist (α, β-meATP) with a concentration of 3 times the required concentration (required final concentration was 400 nM) was prepared with FLIPR Assay buffer, and was added to another 384-well plate at 45 μL per well. The culture plate, on which the cells were plated one day ago, was taken, the cell supernatant was sucked and discarded, each well was added with 30 μL of Dye (FLIPR® Calcium 4 Assay Kit, diluted with FLIPR buffer), and then the plate was incubated for 1h. 15 μL of compound was added to each well of cells (using FLIPR sample injector). After 15 minutes, 22.5 μL of the agonist was added to each well, and the fluorescence signal (exciting light wavelength ranging from 470 nm to 495 nm, and emission wavelength ranging from 515 nm to 575 nm) was detect. […] An inhibition effect curve of the compound was fitted on the software GraphpadPrism6, and the IC50 value was calculated.

The test system of series [2] is ATP/citric acid-stimulated cough in guinea pig. Nature of the series: Efficacy test for ATP/citric acid-stimulated cough in guinea pig. The series is classed as in vivo. Particulars: guinea pigs, nasal drops, 0.17 mg/kg to 1.5 mg/kg, ATP/citric acid stimulation. As for the experimental part: Guinea pigs were adaptively fed for 3 days to 7 days before being grouped. When the body weight of the guinea pigs reached 300 g to 400 g, they were numbered and randomly grouped. Compounds or an excipient were administered to guinea pigs by nasal drops 0.25 hour to 24 hours before the start of the cough assessment. The administration dose of the test sample ranged from 0.17 mg/kg to 1.5 mg/kg. For the cough assessment, the guinea pigs were placed in a whole-body volume scan box for adaptation, and then provided with ATP nebulization, and a few minutes later, they were provided with citric acid nebulization. The cough times within 15 minutes and the cough latency were recorded from the beginning of citric acid nebulization.
as §1

Series [3] in a line: Pharmacokinetic assay in rat. The series is classed as in vivo, SD rats. As for the experimental part: For a rat pharmacokinetic assay, male SD rats (180 g to 240 g) were selected and fasted overnight. Three rats were intragastrically administered with 10 mg/kg of the corresponding compound. The blood of the rats was collected before the administration and at 15 min, 30 min, 1 h, 2 h, 4 h, 8 h, and 24 h after the administration. The blood samples were centrifuged at 4° C. for 6 minutes at 8,000 r/min, and plasma was collected and stored at −20° C. Plasma at each time point was taken, and added with 3 to 5 times the amount of an internal standard-containing acetonitrile solution to mix, and the mixture was vortex mixed for 1 minute, and centrifuged at 4° C. for 10 minutes at 13,000 r/min. The supernatant was taken and mixed with 3 times the amount of water, and an appropriate amount of the mixed solution was taken for LC-MS/MS analysis. The primary pharmacokinetic parameters were analyzed by WinNonlin 7.0 software non-atrioventricular model.

The subject of the next series is rat taste. Nature of the series: Taste test in rat (water vs 0.3 mM aqueous quinine solution intake). Conditions: for Water/aqueous quinine solution (ratio of water intake to aqueous quinine solution intake): SD rats, 30 mg/kg i.p, 0.3 mM quinine, 15 min supply half an hour after administration; for interference on rat taste compared with Reference compound 1 (in words): vs positive reference compound. The series is classed as in vivo, SD rats. As for the experimental part:
SD rats were administered with the corresponding compound after 3 days of overnight water prohibition training. Each rat was supplied with 1 bottle of water and 1 bottle of 0.3 mM aqueous quinine solution half an hour after the administration. After 15 min of water supply, the bottles were removed. The intake amount of water and the intake amount of the 0.3 mM aqueous quinine solution were measured, respectively. The taste influence of the compound on SD rats was evaluated based on the difference between the intake amount of water and the intake amount of the aqueous quinine solution.

A short description of series [4]: Pharmacokinetic assay in mouse. The series is classed as in vivo, ICR mice. Conditions: for pharmacokinetic properties in mouse compared with Reference compound 1 and Reference compound 2 (in words): mouse assay, vs Reference compounds 1 and 2; for AUC(0-t) / Cmax / Tmax / half-life: mouse, plasma, po, male ICR mice, intragastric administration, 10 mg/kg; for half-life: read-out: T½ (converted). The method, then: For a mouse pharmacokinetic assay, male ICR mice (20 g to 25 g) were selected and fasted overnight. Three mice were intragastrically administered with 10 mg/kg of the corresponding compound. The blood of the mice was collected before the administration and at 15 min, 30 min, 1 h, 2 h, 4 h, 8 h, and 24 h after the administration. The blood samples were centrifuged at 4° C. for 6 minutes at 6,800 g, plasma was collected and stored at −80° C.
The supernatant was mixed with 3 times the amount of water, and an appropriate amount of the mixed solution was taken for LC-MS/MS analysis. The primary pharmacokinetic parameters were analyzed by WinNonlin 7.0 software non-atrioventricular model.

Series [5] is described as follows: Pharmacokinetic assay in canine. The series is classed as in vivo, Beagle dogs. As for the experimental part: For a canine pharmacokinetic assay, male Beagle dogs (8 kg to 10 kg) were selected and fasted overnight. Three Beagle dogs were intragastrically administered with 5 mg/kg of the corresponding compound. Another 3 Beagle dogs were intravenously administered with 1 mg/kg of the corresponding compound. The blood of the dogs was collected before the administration and at 15 min, 30 min, 1 h, 2 h, 4 h, 8 h, and 24 h after the administration. The blood samples were centrifuged at 4° C. for 6 minutes at 8,000 r/min, plasma was collected and stored at −20° C. […] The supernatant was taken and mixed with 3 times the amount of water, and an appropriate amount of the mixed solution was taken for LC-MS/MS analysis. The primary pharmacokinetic parameters were analyzed by WinNonlin 7.0 software non-atrioventricular model.

The mark [6] stands for this setting: rat, plasma, po, male SD rats, intragastric administration, 10 mg/kg.
[7] abbreviates: dog, plasma, po, male Beagle dogs, intragastric administration, 5 mg/kg.
The mark [8] stands for this setting: dog, plasma, male Beagle dogs, intravenous administration, 1 mg/kg.

For `Cc1cnc(-c2cc(O[C@@H]3CCOC3)cc(C(=O)N[C@H](C)c3cnc(C(F)(F)F)nc3)c2F)s1` [Compound I-1, 2-fluoro-3-(5-methylthiazol-2-yl)-5-(((R)-tetrahydrofuran-3-yl)oxy)-N—((R)-1-(2-(trifluoromethyl)pyrimidin-5-yl)ethyl)benzamide], in series [1], the “Average cough times within 15 min” value was determined as 10.8 and the “Cough inhibition rate vs. solvent” value is 59.4%. At hP2X3 receptor, the IC50 – broadly, the concentration that inhibits the measured activity by half – was determined as 83 nM and the “antagonistic activity against hP2X3 receptor compared with Reference compound 1 (in words)” value is “better antagonistic activity”. In addition, in series [2], the “Average cough times within 15 min” value came out at 6.5 and the “Cough inhibition rate vs. solvent” value stood at 67.2%. Besides, in series [3] (rat model, vs reference compound 1), the “pharmacokinetic properties in rat compared with reference compound 1 (in words)” value is recorded as “improved to certain extent”. Besides, in series [3] (setting [6]), the AUC(0-t) (commonly exposure summed from dosing to a finite time, without extrapolation to infinity) amounted to 5940 ng·h/mL; the Cmax (as a rule, the maximum level reached in the sampled fluid or tissue) was found to be 569 ng/mL; the Tmax (in general, the time at which the peak concentration occurs) amounted to 4 h. Besides, the half-life in series [3] (rat, plasma, po, male SD rats, intragastric administration, 10 mg/kg, read-out: T½ (converted)) is 3.61 h. Also, in the series on rat taste, the “Water/aqueous quinine solution (ratio of water intake to aqueous quinine solution intake)” value was determined as 18.2 and the “interference on rat taste compared with Reference compound 1 (in words)” value is “significantly less interference on rat taste”. For the same molecule, in series [4], the “pharmacokinetic properties in mouse compared with Reference compound 1 and Reference compound 2 (in words)” value is reported as “significantly improved pharmacokinetic properties”; the AUC(0-t) came to 12100 ng·h/mL; the Cmax is 1550 ng/mL; the Tmax came out at 2 h. For the same molecule, the half-life in series [4] is 2.3 h.

As for `Cc1cnc(-c2cc(O[C@H](C)[C@@H](C)O)cc(C(=O)N[C@H](C)c3cnc(C(F)(F)F)nc3)c2F)s1` [Compound I-30, 2-fluoro-5-(((2R, 3R)-3-hydroxybutan-2-yl)oxy)-3-(5-methylthiazol-2-yl)-N—((R)-1-(2-(trifluoromethyl)pyrimidin-5-yl)ethyl)benzamide], in series [1], the “Average cough times within 15 min” value came out at 9.8 and the “Cough inhibition rate vs. solvent” value worked out at 63.2%. Moreover, the “half-life (in words)” value in series [5] (canine) was “long half-life”. The “clearance rate (in words)” value in series [5] (canine, intravenous administration) is “low clearance rate”. Besides, the “exposure (in words)” value in series [5] (canine, oral and intravenous administrations) is on record as “high exposure”. Also, the “pharmacokinetic characteristics compared with the reference compound (in words)” value in series [5] (canine, vs reference compound) is “better pharmacokinetic characteristics”. Further, in series [5] (setting [7]), the AUC(0-t) turned out to be 12600 ng·h/mL, the highest level (Cmax) was 1030 ng/mL, the Tmax came out at 1 h and the half-life is 13.4 h. Moreover, in series [5] (setting [8]), the area under the curve AUC(0-t) was 2820 ng·h/mL, the clearance (commonly the volume of plasma or blood freed of the substance per unit of time) is 4.33 mL/min/kg and the half-life is 13 h. Moreover, the Vd in series [5] (dog, plasma, male Beagle dogs, intravenous administration, 1 mg/kg, read-out: Vz) worked out at 4.88 L/kg. In addition, on hP2X3 receptor, the IC50 is 48 nM and the “antagonistic activity against hP2X3 receptor compared with Reference compound 1 (in words)” value is “better antagonistic activity”. For the same molecule, in series [2], the “Average cough times within 15 min” value turned out to be 7.1 and the “Cough inhibition rate vs. solvent” value worked out at 64.1%. Besides, in the series on rat taste, the “Water/aqueous quinine solution (ratio of water intake to aqueous quinine solution intake)” value is recorded as 22.9 and the “interference on rat taste compared with Reference compound 1 (in words)” value is reported as “significantly less interference on rat taste”. In series [4], the “pharmacokinetic properties in mouse compared with Reference compound 1 and Reference compound 2 (in words)” value is “significantly improved pharmacokinetic properties”; the AUC(0-t) is 13800 ng·h/mL; the Cmax was determined as 2950 ng/mL; the Tmax came out at 1 h. For the same molecule, the half-life in series [4] is 2.35 h.
